# Assay results published in ChEMBL document CHEMBL1123338, “Synthesis and structure-activity relationship studies of a series of 5-aryl-4,6-dithianonanedioic acids and related compounds: a novel class of leukotriene antagonists” (J Med Chem, 1986).
# Test system: Cysteinyl leukotriene receptor (Cavia porcellus)
# Assay: In vitro ability to antagonize a leukotriene D4 induced contraction of guinea pig trachea.
row,SMILES,-Log KB
1,CCCCCCCCCCCCC(SCCC(=O)O)SCCC(=O)O,5.2
2,CCCCCCCCCCCCc1ccccc1C(SCC(=O)O)SCC(=O)O,5.9
3,CCCCCCCCCCCOc1ccc(Br)cc1C(SCCC(=O)O)SCCC(=O)O,6
4,CCCCCCCCCCCOc1ccccc1C(SCCC(=O)O)SCCC(=O)O,6.4
5,O=C(O)CCSC(SCCC(=O)O)c1ccccc1OCCCCCCc1ccccc1,5.3
6,O=C(O)CCSC(SCCC(=O)O)c1cc(C(F)(F)F)ccc1CCCCCCCCc1ccccc1,7
7,CCCCCCCCCCCCc1ccccc1C(SCCC(=O)O)[S+]([O-])CCC(=O)O (configuration not stated),5.8
8,CCCCC/C=C/C/C=C/COc1ccccc1C(SCCC(=O)O)SCCC(=O)O,6
9,CCCCc1ccc(CCCCc2ccccc2C(SCCC(=O)O)SCCC(=O)O)cc1,5.6
10,CCCCCCCCCCCOc1ccc(OC)cc1C(SCCC(=O)O)SCCC(=O)O,5.9
11,O=C(O)CCSC(SCCC(=O)O)c1ccccc1CCCCCCCCCCCC(F)(F)F,6.2
12,CCCCCCCCCCCOc1ccc(O)cc1C(SCCC(=O)O)SCCC(=O)O,6
13,CCCCCCCCC#CC(SCCC(=O)O)SCCC(=O)O,5
14,CCCCCCCCCCC#CC(SCCC(=O)O)SCCC(=O)O,6.1
15,CCCCCCCCCCC#CC(SCCCC(=O)O)SCCCC(=O)O,5.6
16,CCCCCCCCCCCOc1ccccc1C(C)(SCCC(=O)O)SCCC(=O)O,5.6
17,C#CCCCCCCCCCCc1ccccc1C(SCCC(=O)O)SCCC(=O)O,6.8

row,SMILES,-Log KB
1,CCCCC/C=C/C/C=C/COc1cccc(C(SCCC(=O)O)SCCC(=O)O)c1,6.2
2,CCCCCCCCCCCSc1ccccc1C(SCCC(=O)O)SCCC(=O)O,6
3,CCCCCCCCCCc1ccccc1C(SCCC(=O)O)SCCC(=O)O,6.5
4,CCCCCCCCCCC#CC(SCC(=O)O)SCC(=O)O,5.3
5,CCCCCCCCc1ccccc1C(SCCC(=O)O)SCCC(=O)O,5.2
6,CCCc1c(OCCCCCOc2ccccc2C(SCCC(=O)O)SCCC(=O)O)ccc(C(C)=O)c1O,6.6
7,CCCCCCCCCCCOc1cccc(C(SCCC(=O)O)SCCC(=O)O)c1,6.1
8,CCCCCCCCCCCCC#CC(SCCC(=O)O)SCCC(=O)O,5.7
9,CCCCCCCCCCCCc1ccccc1C(SCCC(=O)O)SCCC(=O)O,6
10,CCCCCCCCCCC#Cc1ccccc1C(SCCC(=O)O)SCCC(=O)O,5.9
11,O=C(O)CCSC(SCCC(=O)O)c1cccc(CCCCCCCCc2ccccc2)c1,6
12,CCCCCCCCCOc1ccccc1C(SCCC(=O)O)SCCC(=O)O,5.8
13,CCCCCCCCCC/C=C/c1ccccc1C(SCCC(=O)O)SCCC(=O)O,5.8
14,CCCCCCCCCCCOc1ccc([N+](=O)[O-])cc1C(SCCC(=O)O)SCCC(=O)O,6.1
15,O=C(O)CCSC(SCCC(=O)O)c1ccccc1CCCCCCCCC1CCCCC1,5.5
16,CCCCCCCCCOc1cccc(C(SCCC(=O)O)SCCC(=O)O)c1,6

# Target: Cysteinyl leukotriene receptor (Cavia porcellus)
# Assay: Compound is evaluated for its ability to inhibit [3H]LTD4 binding to Cysteinyl leukotriene D4 receptor in guinea pig lung membranes
row,SMILES,Ki [nM]
1,CCCCCCCCCCCCc1ccccc1C(SCC(=O)O)SCC(=O)O,846
2,CCCCCCCCCCCCCOc1ccc(C(SCCC(=O)O)SCCC(=O)O)cc1,> 20000
3,CCCCCCCCCCCOc1ccc(Br)cc1C(SCCC(=O)O)SCCC(=O)O,624
4,CCCCCCCCCCCOc1ccccc1C(SCCC(=O)O)SCCC(=O)O,287
5,O=C(O)CCSC(SCCC(=O)O)c1ccccc1OCCCCCCc1ccccc1,11526
6,CCCCCCCCCCCCc1ccccc1C(CCCC(=O)O)CCCC(=O)O,2337
7,O=C(O)CCSC(SCCC(=O)O)c1cc(C(F)(F)F)ccc1CCCCCCCCc1ccccc1,476
8,O=C(O)CCSC(SCCC(=O)O)c1ccccc1OCCCCCCCCCO,> 20000
9,CCCCCCCCCCCCc1ccccc1C(SCCC(=O)O)[S+]([O-])CCC(=O)O (configuration not stated),423
10,CCCCC/C=C/C/C=C/COc1ccccc1C(SCCC(=O)O)SCCC(=O)O,1002
11,CCCCc1ccc(CCCCc2ccccc2C(SCCC(=O)O)SCCC(=O)O)cc1,4228
12,CCCCCCCCCCCOc1ccc(OC)cc1C(SCCC(=O)O)SCCC(=O)O,579
13,CCCCCCCCCCCCc1ccccc1C1S[C@@H](C(=O)O)[C@H](C(=O)O)S1,401
14,O=C(O)CCSC(SCCC(=O)O)c1ccccc1CCCCCCCCCCCC(F)(F)F,147
15,CCCCCCCCCCCCc1ccccc1C1S[C@H](C(=O)O)[C@H](C(=O)O)S1 (stereo in doubt; 61),17578
16,CCCCCCCCCCCOc1ccc(O)cc1C(SCCC(=O)O)SCCC(=O)O,156
17,CCCCCCCCCCCOc1ccc(C(SCCC(=O)O)SCCC(=O)O)cc1,> 20000
18,CCCCCCCCCCc1ccc(C(SCCC(=O)O)SCCC(=O)O)cc1,7565
19,CCCCCCCCCCCOc1ccccc1C(C)(SCCC(=O)O)SCCC(=O)O,> 20000
20,C#CCCCCCCCCCCc1ccccc1C(SCCC(=O)O)SCCC(=O)O,141
21,CCCCC/C=C/C/C=C/COc1cccc(C(SCCC(=O)O)SCCC(=O)O)c1,187
22,CCCCCCCCCCCSc1ccccc1C(SCCC(=O)O)SCCC(=O)O,646

row,SMILES,Ki [nM]
1,CCCCCCCCCCc1ccccc1C(SCCC(=O)O)SCCC(=O)O,1180
2,CCCCCCCCCCCCc1cccc(C)c1C(SCCC(=O)O)SCCC(=O)O,3672
3,CCCCCCCCCCC[C@@H]1CCC(SCCC(=O)O)(SCCC(=O)O)c2ccccc21,> 20000
4,CCCCc1ccccc1C(SCCC(=O)O)SCCC(=O)O,> 20000
5,CCCCCCCCc1ccccc1C(SCCC(=O)O)SCCC(=O)O,5674
6,CCCc1c(OCCCCCOc2ccccc2C(SCCC(=O)O)SCCC(=O)O)ccc(C(C)=O)c1O,3149
7,CCCCCCCCCCCOc1cccc(C(SCCC(=O)O)SCCC(=O)O)c1,78
8,CCCCCCCCCCCCc1ccccc1C(SCCC(=O)O)SCCC(=O)O,445
9,CCCCCCCCCC/C=C\c1ccccc1C(SCCC(=O)O)SCCC(=O)O,1380
10,CCOCCOCCOCCOc1ccccc1C(SCCC(=O)O)SCCC(=O)O,> 20000
11,CCCCCCCCCCC[C@@H]1CC(SCCC(=O)O)(SCCC(=O)O)c2ccccc21,2092
12,CCCCCCCCCCC#Cc1ccccc1C(SCCC(=O)O)SCCC(=O)O,2515
13,O=C(O)CCSC(SCCC(=O)O)c1cccc(CCCCCCCCc2ccccc2)c1,430
14,CCCCCCCCCOc1ccccc1C(SCCC(=O)O)SCCC(=O)O,4094
15,CCCCCCCCCCCCc1ccccc1C(SCCCC(=O)O)SCCCC(=O)O,934
16,CCCCCCCCCCCCCOc1cccc(C(SCCC(=O)O)SCCC(=O)O)c1,530
17,CCCCCCCCCCCCCCc1ccccc1C(SCCC(=O)O)SCCC(=O)O,1246
18,CCCCCCCCCC/C=C/c1ccccc1C(SCCC(=O)O)SCCC(=O)O,491
19,O=C(O)CCSC(SCCC(=O)O)c1ccccc1OCCCC1CCCCC1,1009
20,CCCCCCCCCCCOc1ccc([N+](=O)[O-])cc1C(SCCC(=O)O)SCCC(=O)O,303
21,O=C(O)CCSC(SCCC(=O)O)c1ccccc1CCCCCCCCC1CCCCC1,1958
22,CCCCCCCCCOc1cccc(C(SCCC(=O)O)SCCC(=O)O)c1,624
